From PMC11769294, “(E)-1-(3-(3-Hydroxy-4-Methoxyphenyl)-1-(3,4,5-Trimethoxyphenyl)allyl)-1H-1,2,4-Triazole and Related Compounds: Their Synthesis and Biological Evaluation as Novel Antimitotic Agents Targeting Breast Cancer” (Pharmaceuticals, 2025)
Values joined by “and” are separate entries in the source; they are usually repeats but may differ in a detail not shown here. Identical values can stand only once.

Columns and labels:
Format in all cases: cell-based, human
[1] = tested on: OVCAR-4 (Ovarian Cancer); assay: NCI60 screen (SRB); conditions: one dose 10 µM, 48 h
[2] = tested on: SK-OV-3 (Ovarian Cancer); assay: NCI60 screen (SRB); conditions: one dose 10 µM, 48 h
[3] = tested on: SW-620 (Colon Cancer); assay: NCI60 screen (SRB); conditions: one dose 10 µM, 48 h
[4] = tested on: MDA-MB-435 (Melanoma); assay: NCI60 screen (SRB); conditions: one dose 10 µM, 48 h
[5] = tested on: MCF7 (Breast Cancer); assay: NCI60 screen (SRB); conditions: one dose 10 µM, 48 h
[6] = tested on: NCI/ADR-RES (Ovarian Cancer); assay: NCI60 screen (SRB); conditions: one dose 10 µM, 48 h
[7] = tested on: PC-3 (Prostate Cancer); assay: NCI60 screen (SRB); conditions: one dose 10 µM, 48 h
[8] = tested on: SR (Leukemia); assay: NCI60 screen (SRB); conditions: one dose 10 µM, 48 h
[9] = tested on: 786-0 (Renal Cancer); assay: NCI60 screen (SRB); conditions: one dose 10 µM, 48 h
[10] = tested on: CCRF-CEM (Leukemia); assay: NCI60 screen (SRB); conditions: one dose 10 µM, 48 h
[11] = tested on: SK-MEL-2 (Melanoma); assay: NCI60 screen (SRB); conditions: one dose 10 µM, 48 h
[12] = tested on: UACC-62 (Melanoma); assay: NCI60 screen (SRB); conditions: one dose 10 µM, 48 h
[13] = tested on: T-47D (Breast Cancer); assay: NCI60 screen (SRB); conditions: one dose 10 µM, 48 h
[14] = tested on: HS 578T (Breast Cancer); assay: NCI60 screen (SRB); conditions: HS 578T; one dose 10 µM; 48 h
[15] = tested on: SF-268 (CNS Cancer); assay: NCI60 screen (SRB); conditions: one dose 10 µM, 48 h
[16] = tested on: leukemia panel; assay: NCI60 screen (SRB), panel mean; conditions: one dose 10 µM, 48 h
[17] = tested on: DU-145 (Prostate Cancer); assay: NCI60 screen (SRB); conditions: one dose 10 µM, 48 h
[18] = tested on: NCI 60 cancer cell line panel; assay: NCI60 screen (SRB), all cell lines; conditions: over the 60-cell line panel; one dose 10 µM; 48 h
[19] = tested on: UACC-257 (Melanoma); assay: NCI60 screen (SRB); conditions: one dose 10 µM, 48 h
[20] = tested on: MALME-3M (Melanoma); assay: NCI60 screen (SRB); conditions: one dose 10 µM, 48 h
[21] = tested on: NCI-H522 (Non-Small Cell Lung Cancer); assay: NCI60 screen (SRB); conditions: one dose 10 µM, 48 h
[22] = tested on: HOP-62 (Non-Small Cell Lung Cancer); assay: NCI60 screen (SRB); conditions: one dose 10 µM, 48 h
[23] = tested on: HCC-2998 (Colon Cancer); assay: NCI60 screen (SRB); conditions: one dose 10 µM, 48 h
[24] = tested on: MDA-MB-231/ATCC (Breast Cancer); assay: NCI60 screen (SRB); conditions: one dose 10 µM, 48 h
[25] = tested on: HOP-92 (Non-Small Cell Lung Cancer); assay: NCI60 screen (SRB); conditions: one dose 10 µM, 48 h
[26] = tested on: K-562 (Leukemia); assay: NCI60 screen (SRB); conditions: one dose 10 µM, 48 h
[27] = tested on: SNB-19 (CNS Cancer); assay: NCI60 screen (SRB); conditions: one dose 10 µM, 48 h
[28] = tested on: CAKI-1 (Renal Cancer); assay: NCI60 screen (SRB); conditions: one dose 10 µM, 48 h
[29] = tested on: SNB-75 (CNS Cancer); assay: NCI60 screen (SRB); conditions: one dose 10 µM, 48 h
[30] = tested on: M14 (Melanoma); assay: NCI60 screen (SRB); conditions: one dose 10 µM, 48 h
[31] = tested on: HCT-15 (Colon Cancer); assay: NCI60 screen (SRB); conditions: one dose 10 µM, 48 h
[32] = tested on: HCT-116 (Colon Cancer); assay: NCI60 screen (SRB); conditions: one dose 10 µM, 48 h
[33] = tested on: RPMI-8226 (Leukemia); assay: NCI60 screen (SRB); conditions: one dose 10 µM, 48 h
[34] = tested on: OVCAR-8 (Ovarian Cancer); assay: NCI60 screen (SRB); conditions: one dose 10 µM, 48 h
[35] = tested on: MDA-MB-468 (Breast Cancer); assay: NCI60 screen (SRB); conditions: one dose 10 µM, 48 h
[36] = tested on: breast cancer panel; assay: NCI60 screen (SRB), panel mean; conditions: BC panel; one dose 10 µM; 48 h
[37] = tested on: KM12 (Colon Cancer); assay: NCI60 screen (SRB); conditions: one dose 10 µM, 48 h
[38] = tested on: COLO 205 (Colon Cancer); assay: NCI60 screen (SRB); conditions: one dose 10 µM, 48 h
[39] = tested on: SK-MEL-5 (Melanoma); assay: NCI60 screen (SRB); conditions: one dose 10 µM, 48 h
[40] = tested on: U251 (CNS Cancer); assay: NCI60 screen (SRB); conditions: one dose 10 µM, 48 h
[41] = tested on: MOLT-4 (Leukemia); assay: NCI60 screen (SRB); conditions: one dose 10 µM, 48 h
[42] = tested on: IGROV1 (Ovarian Cancer); assay: NCI60 screen (SRB); conditions: one dose 10 µM, 48 h

COc1ccc(/C=C/C(c2cc(OC)c(OC)c(OC)c2)n2cncn2)cc1 (centres unmarked) [Compound 22a, (E)-1-(3-(4-Methoxyphenyl)-1-(3,4,5-trimethoxyphenyl)allyl)-1H-1,2,4-triazole]
growth percent [1]: 96.82%
growth percent [2]: 35.55%
growth percent [3]: 26.63%
growth percent [4]: −9.62%
growth percent [5]: 22.5% and 22.48%
growth percent [6]: 36.28%
growth percent [7]: 31.20%
growth percent [8]: 18.93%
growth percent [9]: 39.65%
growth percent [10]: 35.07%
growth percent [11]: 12.89%
growth percent [12]: 33.84%
growth percent [13]: 30.79%
growth percent [14]: 51.18%
growth percent [15]: 57.07%
mean growth percentage [16]: 24.0%
growth percent [17]: 61.25%
mean growth percent [18]: 41.9%
growth percent [19]: 46.44%
growth percent [20]: 61.34%
growth percent [21]: 28.37%
growth percent [22]: 41.84%
growth percent [23]: 84.15%
growth percent [24]: 50.05%
growth percent [25]: 40.32%
growth percent [26]: 17.72%
growth percent [27]: 49.01%
growth percent [28]: 51.61%
growth percent [29]: 51.27%
growth percent [30]: 17.86%
growth percent [31]: 31.14%
growth percent [32]: 21.99%
growth percent [33]: 50.84%
growth percent [34]: 52.16%
growth percent [35]: 40.88%
mean growth percentage [36]: 40.1%
growth percent [37]: 30.66%
growth percent [38]: 30.72%
growth percent [39]: 33.03%
growth percent [40]: 31.77%
growth percent [41]: 39.43%
growth percent [42]: 64.61%

COc1cc(/C=C/C(/C=C/c2cc(OC)c(OC)c(OC)c2)n2ccnc2)cc(OC)c1OC [Compound 30, 1-((1E,4E)-1,5-bis(3,4,5-trimethoxyphenyl)penta-1,4-dien-3-yl)-1H-imidazole]
growth percent [1]: 92.69%
growth percent [2]: 92.06%
growth percent [3]: 88.00%
growth percent [4]: 45.63%
growth percent [5]: 57.42%
growth percent [6]: 89.35%
growth percent [7]: 58.09%
growth percent [8]: 31.50%
growth percent [9]: 95.20%
growth percent [10]: 65.10%
growth percent [11]: 81.02%
growth percent [12]: 68.23%
growth percent [13]: 77.54%
growth percent [14]: 77.21%
growth percent [15]: 91.93%
mean growth percentage [16]: 60.5%
growth percent [17]: 100.17%
mean growth percent [18]: 81.3%
growth percent [19]: 75.61%
growth percent [20]: 93.80%
growth percent [21]: 64.75%
growth percent [22]: 84.91%
growth percent [23]: 99.87%
growth percent [24]: 76.21%
growth percent [25]: 56.24%
growth percent [26]: 61.41%
growth percent [27]: 89.08%
growth percent [29]: 54.99%
growth percent [30]: 82.03%
growth percent [31]: 77.23%
growth percent [32]: 78.18%
growth percent [33]: 60.48%
growth percent [34]: 83.74%
growth percent [35]: 57.22%
mean growth percentage [36]: 71.5%
growth percent [37]: 82.35%
growth percent [38]: 99.42%
growth percent [39]: 62.09%
growth percent [40]: 81.64%
growth percent [41]: 74.07%
growth percent [42]: 78.02%

COc1ccc(/C=C/C(c2cc(OC)c(OC)c(OC)c2)n2ccnc2)cc1O (centres unmarked) [Compound 23b, (E)-5-(3-(1H-Imidazol-1-yl)-3-(3,4,5-trimethoxyphenyl)prop-1-en-1-yl)-2-methoxyphenol]
growth percent [1]: 78.81%
growth percent [2]: 33.54%
growth percent [3]: 17.41%
growth percent [4]: −25.56%
growth percent [5]: 17.9% and 17.87%
growth percent [6]: 45.70%
growth percent [7]: 25.28%
growth percent [8]: 6.18%
growth percent [9]: 34.04%
growth percent [10]: 37.13%
growth percent [11]: 41.65%
growth percent [12]: 36.37%
growth percent [13]: 40.62%
growth percent [14]: 32.05%
growth percent [15]: 56.10%
mean growth percentage [16]: 11.2%
growth percent [17]: 37.76%
mean growth percent [18]: 39.7%
growth percent [19]: 34.19%
growth percent [20]: 57.72%
growth percent [21]: 24.65%
growth percent [22]: 47.25%
growth percent [23]: 76.97%
growth percent [24]: 53.0% and 52.97%
growth percent [25]: 30.49%
growth percent [26]: 13.63%
growth percent [27]: 47.27%
growth percent [28]: 60.21%
growth percent [29]: 20.04%
growth percent [30]: 18.61%
growth percent [31]: 24.91%
growth percent [32]: 16.67%
growth percent [33]: 15.14%
growth percent [34]: 40.97%
growth percent [35]: 40.60%
mean growth percentage [36]: 38.1%
growth percent [37]: 29.04%
growth percent [38]: 89.81%
growth percent [39]: 16.98%
growth percent [40]: 27.12%
growth percent [41]: 31.88%
growth percent [42]: 55.74%
